Reference: ChEMBL document CHEMBL4041467, “Synthesis of novel 15-membered 8a-azahomoerythromycin A acylides: Consequences of structural modification at the C-3 and C-6 position on antibacterial activity” (Eur J Med Chem, 2017)
Values after ≈ are worked out from the molar mass of the structure shown.

Tests used:
[1] = test system: Streptococcus pneumoniae; assay: Antibacterial activity against constitutively macrolide/lincosamide/streptogramin B-resistant Streptococcus pneumoniae by agar microdilution method; format: functional
[2] = test system: Streptococcus pneumoniae; assay: Antibacterial activity against erythromycin susceptible Streptococcus pneumoniae by agar microdilution method; format: functional
[3] = test system: Streptococcus pyogenes; assay: Antibacterial activity against constitutively macrolide/lincosamide/streptogramin B-resistant Streptococcus pyogenes by agar microdilution method; format: functional
[4] = test system: Streptococcus pyogenes; assay: Antibacterial activity against Mef-mediated macrolide efflux resistant Streptococcus pyogenes by agar microdilution method; format: functional
[5] = test system: Streptococcus pyogenes; assay: Antibacterial activity against erythromycin susceptible Streptococcus pyogenes by agar microdilution method; format: functional
[6] = test system: Staphylococcus aureus; assay: Antibacterial activity against constitutively macrolide/lincosamide/streptogramin B-resistant Staphylococcus aureus by agar microdilution method; format: functional
[7] = test system: Haemophilus influenzae; assay: Antibacterial activity against Haemophilus influenzae by agar microdilution method; format: functional
[8] = test system: Streptococcus pneumoniae; assay: Antibacterial activity against Mef-mediated macrolide efflux resistant Streptococcus pneumoniae by agar microdilution method; format: functional
[9] = test system: Staphylococcus aureus; assay: Antibacterial activity against inducibly macrolide/lincosamide/streptogramin B-resistant Staphylococcus aureus by agar microdilution method; format: functional
[10] = test system: Staphylococcus aureus; assay: Antibacterial activity against erythromycin susceptible Staphylococcus aureus by agar microdilution method; format: functional
[11] = test system: Plasma; assay: Stability in rat plasma at 1 uM up to 120 mins by LC-MS/MS analysis; format: ADME, cell-free; conditions: 2 h
[12] = test system: Staphylococcus aureus; assay: Potency index, ratio of clarithromycin ED50 to compound ED50 for erythromycin susceptible Staphylococcus aureus infected in mouse; format: functional
[13] = test system: Streptococcus pneumoniae; assay: Antibacterial activity against erythromycin susceptible Streptococcus pneumoniae infected in mouse assessed as increase in mouse survival administered orally 1 hr post infection; format: functional; conditions: po
[14] = test system: Streptococcus pneumoniae; assay: Potency index, ratio of clarithromycin ED50 to compound ED50 for erythromycin susceptible Streptococcus pneumoniae infected in mouse; format: functional
[15] = test system: Staphylococcus aureus; assay: Antibacterial activity against erythromycin susceptible Staphylococcus aureus infected in mouse assessed as increase in mouse survival administered orally 1 hr post infection; format: functional; conditions: po
[16] = Metabolic stability in human liver microsomes assessed as parent compound remaining at 1 uM after 60 mins in presence of NADP by LC-MS/MS analysis; format: ADME, microsome; conditions: read-out: Stability
[17] = Metabolic stability in mouse liver microsomes assessed as parent compound remaining at 1 uM after 60 mins in presence of NADP by LC-MS/MS analysis; format: ADME, microsome; conditions: read-out: Stability
[18] = Metabolic stability in rat liver microsomes assessed as parent compound remaining at 1 uM after 60 mins in presence of NADP by LC-MS/MS analysis; format: ADME, microsome; conditions: read-out: Stability

SMILES | MIC [1] [µg/mL] | MIC [2] [µg/mL] | MIC [3] [µg/mL] | MIC [4] [µg/mL] | MIC [5] [µg/mL] | MIC [6] [µg/mL] | MIC [7] [µg/mL] | MIC [8] [µg/mL] | MIC [9] [µg/mL] | MIC [10] [µg/mL] | Stability [11] | Ratio ED50 [12] | ED50 [13] [mg/kg] | Ratio ED50 [14] | ED50 [15] [mg/kg] | remaining at 1 h, 1 µM [16] [%] | remaining at 1 h, 1 µM [17] [%] | remaining at 1 h, 1 µM [18] [%]
COC(=O)c1cn(C2CC2)c2cc(N3CCNCC3)c(F)cc2c1=O | > 64 | > 64 | > 64 | > 64 | > 64 | > 64 | 16 (≈ 46.3 µM) | > 64 | > 64 | > 64 |  |  |  |  |  |  |  | 
C=CCO[C@]1(C)C[C@@H](C)NC(=O)[C@H](C)[C@@H](O)[C@](C)(O)[C@@H](CC)OC(=O)[C@H](C)[C@@H](OC(=O)CCN2CCN(c3cc4c(=O)c(C(=O)O)cn(C5CC5)c4cc3Cl)CC2)[C@H](C)[C@H]1O[C@@H]1O[C@H](C)C[C@H](N(C)C)[C@H]1O | 4 (≈ 3.87 µM) | ≤ 0.125 | 8 (≈ 7.75 µM) | 1 (≈ 0.968 µM) | ≤ 0.125 | > 64 | 4 (≈ 3.87 µM) | 0.5 (≈ 0.484 µM) | 0.25 (≈ 0.242 µM) | ≤ 0.125 |  |  |  |  |  |  |  | 
O=C(O)c1cn(C2CC2)c2cc(Cl)c(N3CCNCC3)cc2c1=O | > 64 | > 64 | > 64 | > 64 | > 64 | > 64 | > 64 | > 64 | > 64 | > 64 |  |  |  |  |  |  |  | 
C=CCO[C@]1(C)C[C@@H](C)NC(=O)[C@H](C)[C@@H](O)[C@](C)(O)[C@@H](CC)OC(=O)[C@H](C)[C@@H](OC(=O)CCN2CCN(c3ccc4c(c3)c(=O)c(C(=O)O)cn4C3CC3)CC2)[C@H](C)[C@H]1O[C@@H]1O[C@H](C)C[C@H](N(C)C)[C@H]1O | 16 (≈ 16 µM) | 2 (≈ 2 µM) | 32 (≈ 32.1 µM) | 16 (≈ 16 µM) | 4 (≈ 4.01 µM) | > 64 | 16 (≈ 16 µM) | 4 (≈ 4.01 µM) | 8 (≈ 8.01 µM) | 4 (≈ 4.01 µM) |  |  |  |  |  |  |  | 
CC[C@H]1OC(=O)[C@H](C)[C@@H](OC(=O)CCNCCNc2cc3c(=O)c(C(=O)O)cn(C4CC4)c3cc2Cl)[C@H](C)[C@@H](O[C@@H]2O[C@H](C)C[C@H](N(C)C)[C@H]2O)[C@](C)(OC/C=C/c2cnc3ccccc3n2)C[C@@H](C)NC(=O)[C@H](C)[C@@H](O)[C@]1(C)O | 1 (≈ 0.881 µM) | ≤ 0.125 | 16 (≈ 14.1 µM) | 1 (≈ 0.881 µM) | ≤ 0.125 | > 64 | 4 (≈ 3.52 µM) | 0.5 (≈ 0.441 µM) | 1 (≈ 0.881 µM) | 0.5 (≈ 0.441 µM) |  |  |  |  |  |  |  | 
C=CCO[C@]1(C)C[C@@H](C)NC(=O)[C@H](C)[C@@H](O)[C@](C)(O)[C@@H](CC)OC(=O)[C@H](C)[C@@H](OC(=O)CCNC(C)C(=O)Nc2cnc3ccccc3c2)[C@H](C)[C@H]1O[C@@H]1O[C@H](C)C[C@H](N(C)C)[C@H]1O (some centres not stated) | 16 (≈ 17.8 µM) | ≤ 0.125 | 8 (≈ 8.89 µM) | 1 (≈ 1.11 µM) | ≤ 0.125 | > 64 | 4 (≈ 4.44 µM) | 0.25 (≈ 0.278 µM) | 1 (≈ 1.11 µM) | 0.5 (≈ 0.555 µM) |  |  |  |  |  |  |  | 
C=CCO[C@]1(C)C[C@@H](C)NC(=O)[C@H](C)[C@@H](O)[C@](C)(O)[C@@H](CC)OC(=O)[C@H](C)[C@@H](OC(=O)CCN2CCN(c3cc4c(cc3F)c(=O)c(C(=O)O)cn4C3CC3)CC2)[C@H](C)[C@H]1O[C@@H]1O[C@H](C)C[C@H](N(C)C)[C@H]1O | 4 (≈ 3.94 µM) | 0.5 (≈ 0.492 µM) | 8 (≈ 7.87 µM) | 0.5 (≈ 0.492 µM) | 0.5 (≈ 0.492 µM) | > 64 | 4 (≈ 3.94 µM) | 1 (≈ 0.984 µM) | 1 (≈ 0.984 µM) | 0.5 (≈ 0.492 µM) | Stable |  |  |  |  |  |  | 
CC[C@H]1OC(=O)[C@H](C)[C@@H](OC(=O)CCNCCNc2cc3c(=O)c(C(=O)O)cn(C4CC4)c3cc2Cl)[C@H](C)[C@@H](O[C@@H]2O[C@H](C)C[C@H](N(C)C)[C@H]2O)[C@](C)(OC/C=C/c2cccc3ncccc23)C[C@@H](C)NC(=O)[C@H](C)[C@@H](O)[C@]1(C)O | 8 (≈ 7.06 µM) | 0.5 (≈ 0.441 µM) | 32 (≈ 28.2 µM) | 4 (≈ 3.53 µM) | 1 (≈ 0.882 µM) | > 64 | 8 (≈ 7.06 µM) | 4 (≈ 3.53 µM) | 2 (≈ 1.76 µM) | 1 (≈ 0.882 µM) |  |  |  |  |  |  |  | 
C=CCO[C@]1(C)C[C@@H](C)NC(=O)[C@H](C)[C@@H](O)[C@](C)(O)[C@@H](CC)OC(=O)[C@H](C)[C@@H](OC(=O)CCNCCNc2cc3c(cc2F)c(=O)c(C(=O)O)cn3C2CC2)[C@H](C)[C@H]1O[C@@H]1O[C@H](C)C[C@H](N(C)C)[C@H]1O | 2 (≈ 2.02 µM) | 0.25 (≈ 0.252 µM) | 16 (≈ 16.2 µM) | 0.5 (≈ 0.505 µM) | 0.25 (≈ 0.252 µM) | > 64 | 2 (≈ 2.02 µM) | 0.5 (≈ 0.505 µM) | 0.25 (≈ 0.252 µM) | 0.25 (≈ 0.252 µM) |  |  |  |  |  |  |  | 
C=CCO[C@]1(C)C[C@@H](C)NC(=O)[C@H](C)[C@@H](O)[C@](C)(O)[C@@H](CC)OC(=O)[C@H](C)[C@@H](OC(=O)CCNC(C)C(=O)Nc2ccc3ncccc3c2)[C@H](C)[C@H]1O[C@@H]1O[C@H](C)C[C@H](N(C)C)[C@H]1O (some centres not stated) | 8 (≈ 8.89 µM) | ≤ 0.125 | 4 (≈ 4.44 µM) | 0.25 (≈ 0.278 µM) | ≤ 0.125 | > 64 | 4 (≈ 4.44 µM) | 0.25 (≈ 0.278 µM) | 0.5 (≈ 0.555 µM) | 0.5 (≈ 0.555 µM) |  |  |  |  |  |  |  | 
C=CCO[C@]1(C)C[C@@H](C)NC(=O)[C@H](C)[C@@H](O)[C@](C)(O)[C@@H](CC)OC(=O)[C@H](C)[C@@H](OC(=O)CCN2CCN(c3cc4c(cc3F)c(=O)c(C(=O)OC)cn4C3CC3)CC2)[C@H](C)[C@H]1O[C@@H]1O[C@H](C)C[C@H](N(C)C)[C@H]1O | 8 (≈ 7.77 µM) | 2 (≈ 1.94 µM) | 32 (≈ 31.1 µM) | 8 (≈ 7.77 µM) | 2 (≈ 1.94 µM) | > 64 | 8 (≈ 7.77 µM) | 4 (≈ 3.88 µM) | 4 (≈ 3.88 µM) | 2 (≈ 1.94 µM) |  |  |  |  |  |  |  | 
CC[C@H]1OC(=O)[C@H](C)[C@@H](OC(=O)CCNCCNc2cc3c(=O)c(C(=O)O)cn(C4CC4)c3cc2Cl)[C@H](C)[C@@H](O[C@@H]2O[C@H](C)C[C@H](N(C)C)[C@H]2O)[C@](C)(OC/C=C/c2ccc3ncccc3c2)C[C@@H](C)NC(=O)[C@H](C)[C@@H](O)[C@]1(C)O |  | ≤ 0.125 | 4 (≈ 3.53 µM) | 0.25 (≈ 0.221 µM) | ≤ 0.125 | > 64 | 4 (≈ 3.53 µM) | 0.25 (≈ 0.221 µM) | 0.25 (≈ 0.221 µM) | 0.25 (≈ 0.221 µM) |  | 2 | 15.1 | 2 | 12.8 |  |  | 
CC[C@H]1OC(=O)[C@H](C)[C@@H](OC(=O)CCNCCNc2cc3c(=O)c(C(=O)O)cn(C4CC4)c3cc2Cl)[C@H](C)[C@@H](O[C@@H]2O[C@H](C)C[C@H](N(C)C)[C@H]2O)[C@](C)(OC/C=C/c2ccnc3ccccc23)C[C@@H](C)NC(=O)[C@H](C)[C@@H](O)[C@]1(C)O | 4 (≈ 3.53 µM) | 0.25 (≈ 0.221 µM) | 32 (≈ 28.2 µM) | 4 (≈ 3.53 µM) | 0.5 (≈ 0.441 µM) | > 64 | 16 (≈ 14.1 µM) | 1 (≈ 0.882 µM) | 0.5 (≈ 0.441 µM) | 0.5 (≈ 0.441 µM) |  |  |  |  |  |  |  | 
CCOc1ccc2ccc(=O)oc2c1 [ETHOXYCOUMARIN] |  |  |  |  |  |  |  |  |  |  |  |  |  |  |  | 18 | 30 | 57
